Source: the supplement of paper PMC12463676, “Small-molecule dissolution of stress granules by redox modulation benefits ALS models” (Nature Chemical Biology, 2025)

Tests used:
potassium arsenate = compound: O=[As]([O-])(O)O.[K+] [potassium arsenate]; assay: thermal stability z-score vs DMSO; higher = more thermally stabilized by treatment; conditions: HeLa; arsenate concentration 1 mM
Method: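 Cellular thermal proteome profiling in HeLa cells treated with 1 mM arsenate for 1 h (DMSO pretreatment), heated to ten temperatures (37-66.3 °C). Soluble protein was quantified by TMT mass spectrometry relative to DMSO controls; the thermal stability score was transformed to a z-score; mean of n = 3 experiments.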

lipoamide = compound: NC(=O)CCCCC1CCSS1 [lipoamide]; assay: as above; conditions: HeLa, lipoamide concentration 100 µM
Method: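 Cellular thermal proteome profiling in HeLa cells. Cells were treated with 100 µM lipoamide for 1 h, with or without 1 mM arsenate for a further 1 h, then heated to ten temperatures (37-66.3 °C), and soluble protein was quantified by TMT mass spectrometry relative to 0.1% DMSO controls. The thermal stability score (sum of log2 fold changes minus the abundance score) was transformed to a z-score; mean of n = 3 experiments.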

[1] = arsenate co-treatment: 1 mM arsenate 1 h
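Further: each temperature applied for 3 min, abundance score taken as mean log2 fold change at the two lowest temperatures, z-score obtained by mean subtraction and division by SD.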

Sequence of UniProt Q13177 (Q13177 whole entry): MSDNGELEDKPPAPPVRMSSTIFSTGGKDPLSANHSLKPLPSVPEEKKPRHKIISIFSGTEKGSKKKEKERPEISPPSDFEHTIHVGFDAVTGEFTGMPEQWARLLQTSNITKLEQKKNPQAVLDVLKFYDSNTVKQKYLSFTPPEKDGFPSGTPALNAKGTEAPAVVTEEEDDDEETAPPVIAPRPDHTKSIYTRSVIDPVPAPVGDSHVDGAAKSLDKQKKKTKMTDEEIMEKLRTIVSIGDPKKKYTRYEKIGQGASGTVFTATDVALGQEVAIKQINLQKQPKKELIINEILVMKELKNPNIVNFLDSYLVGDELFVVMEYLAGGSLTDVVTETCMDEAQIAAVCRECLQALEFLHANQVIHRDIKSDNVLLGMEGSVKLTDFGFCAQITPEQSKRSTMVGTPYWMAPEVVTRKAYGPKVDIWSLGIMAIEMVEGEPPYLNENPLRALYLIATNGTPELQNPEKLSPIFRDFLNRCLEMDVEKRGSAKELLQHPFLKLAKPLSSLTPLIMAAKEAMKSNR
Sequence of UniProt Q8N4C8 (Q8N4C8 whole entry, looked up): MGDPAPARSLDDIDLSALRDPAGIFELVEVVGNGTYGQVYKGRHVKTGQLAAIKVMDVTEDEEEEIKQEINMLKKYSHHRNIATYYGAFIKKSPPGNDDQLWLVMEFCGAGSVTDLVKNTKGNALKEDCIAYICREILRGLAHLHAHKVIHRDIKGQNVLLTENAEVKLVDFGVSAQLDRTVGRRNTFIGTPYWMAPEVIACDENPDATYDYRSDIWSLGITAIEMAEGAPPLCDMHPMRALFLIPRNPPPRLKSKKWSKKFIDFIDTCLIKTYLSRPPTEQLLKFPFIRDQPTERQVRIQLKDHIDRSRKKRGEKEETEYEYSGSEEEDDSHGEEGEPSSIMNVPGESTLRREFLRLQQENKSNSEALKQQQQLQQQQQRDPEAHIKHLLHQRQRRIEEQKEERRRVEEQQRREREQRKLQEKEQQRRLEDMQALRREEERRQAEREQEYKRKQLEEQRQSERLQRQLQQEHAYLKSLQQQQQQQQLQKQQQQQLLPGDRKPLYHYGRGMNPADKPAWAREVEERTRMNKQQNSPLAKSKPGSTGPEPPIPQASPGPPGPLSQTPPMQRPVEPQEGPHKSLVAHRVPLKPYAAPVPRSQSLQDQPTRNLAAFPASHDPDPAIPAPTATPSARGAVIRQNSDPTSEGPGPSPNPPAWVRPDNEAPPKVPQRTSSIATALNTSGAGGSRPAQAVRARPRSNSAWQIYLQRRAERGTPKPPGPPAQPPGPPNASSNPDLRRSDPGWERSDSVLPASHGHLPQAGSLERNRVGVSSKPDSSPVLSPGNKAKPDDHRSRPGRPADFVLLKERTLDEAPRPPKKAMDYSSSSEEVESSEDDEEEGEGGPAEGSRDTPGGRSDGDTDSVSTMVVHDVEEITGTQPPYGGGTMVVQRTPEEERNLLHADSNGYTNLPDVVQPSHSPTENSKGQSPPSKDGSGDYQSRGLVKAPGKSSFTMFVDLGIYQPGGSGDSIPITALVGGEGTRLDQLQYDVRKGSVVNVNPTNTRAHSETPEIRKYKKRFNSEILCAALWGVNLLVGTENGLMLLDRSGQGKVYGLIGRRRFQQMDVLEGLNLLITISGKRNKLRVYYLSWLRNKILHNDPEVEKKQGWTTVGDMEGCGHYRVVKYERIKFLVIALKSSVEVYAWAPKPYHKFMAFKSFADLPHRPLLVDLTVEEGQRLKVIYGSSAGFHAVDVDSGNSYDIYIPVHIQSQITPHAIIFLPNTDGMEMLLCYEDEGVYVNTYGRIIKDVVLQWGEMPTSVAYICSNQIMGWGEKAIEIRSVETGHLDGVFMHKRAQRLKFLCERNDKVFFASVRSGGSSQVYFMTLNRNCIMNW
Sequence of UniProt Q13637 (Q13637 whole entry): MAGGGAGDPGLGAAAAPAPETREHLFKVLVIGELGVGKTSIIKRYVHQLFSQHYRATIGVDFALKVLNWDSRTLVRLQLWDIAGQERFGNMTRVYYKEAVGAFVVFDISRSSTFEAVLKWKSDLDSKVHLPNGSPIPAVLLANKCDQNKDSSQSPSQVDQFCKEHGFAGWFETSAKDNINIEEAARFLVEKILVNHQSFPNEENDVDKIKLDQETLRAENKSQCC
Sequence of UniProt P42126 (P42126 whole entry): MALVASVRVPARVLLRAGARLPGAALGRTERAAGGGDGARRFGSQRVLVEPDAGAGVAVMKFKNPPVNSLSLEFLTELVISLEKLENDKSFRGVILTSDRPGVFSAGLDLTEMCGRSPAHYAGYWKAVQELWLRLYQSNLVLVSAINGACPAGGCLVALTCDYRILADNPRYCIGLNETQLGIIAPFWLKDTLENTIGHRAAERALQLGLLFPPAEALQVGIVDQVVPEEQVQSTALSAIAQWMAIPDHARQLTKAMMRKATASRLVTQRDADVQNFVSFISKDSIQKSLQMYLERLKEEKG
Sequence of UniProt Q9BZJ0 (Q9BZJ0 whole entry): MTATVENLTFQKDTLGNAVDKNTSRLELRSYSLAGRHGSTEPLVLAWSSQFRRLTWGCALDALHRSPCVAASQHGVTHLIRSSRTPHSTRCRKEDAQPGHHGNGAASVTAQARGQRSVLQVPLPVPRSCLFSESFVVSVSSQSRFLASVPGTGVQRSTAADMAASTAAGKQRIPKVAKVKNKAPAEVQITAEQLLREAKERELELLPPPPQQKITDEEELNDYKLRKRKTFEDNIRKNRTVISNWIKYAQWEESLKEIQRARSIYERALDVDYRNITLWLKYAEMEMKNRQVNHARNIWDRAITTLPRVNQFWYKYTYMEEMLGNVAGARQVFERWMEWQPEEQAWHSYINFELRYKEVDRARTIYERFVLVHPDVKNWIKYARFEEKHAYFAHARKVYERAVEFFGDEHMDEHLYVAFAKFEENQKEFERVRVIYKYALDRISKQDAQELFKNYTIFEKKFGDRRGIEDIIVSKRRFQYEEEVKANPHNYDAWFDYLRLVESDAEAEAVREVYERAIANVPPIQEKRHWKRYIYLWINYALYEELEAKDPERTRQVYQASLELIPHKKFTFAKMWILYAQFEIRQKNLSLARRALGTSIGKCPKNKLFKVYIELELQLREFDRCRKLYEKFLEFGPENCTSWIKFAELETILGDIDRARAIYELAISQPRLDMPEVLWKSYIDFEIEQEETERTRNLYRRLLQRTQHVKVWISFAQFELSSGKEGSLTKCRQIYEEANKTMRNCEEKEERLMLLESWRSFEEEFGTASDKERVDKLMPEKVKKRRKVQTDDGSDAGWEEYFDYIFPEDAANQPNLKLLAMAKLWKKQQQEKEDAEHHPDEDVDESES
Sequence of UniProt Q8N2M8 (Q8N2M8 whole entry): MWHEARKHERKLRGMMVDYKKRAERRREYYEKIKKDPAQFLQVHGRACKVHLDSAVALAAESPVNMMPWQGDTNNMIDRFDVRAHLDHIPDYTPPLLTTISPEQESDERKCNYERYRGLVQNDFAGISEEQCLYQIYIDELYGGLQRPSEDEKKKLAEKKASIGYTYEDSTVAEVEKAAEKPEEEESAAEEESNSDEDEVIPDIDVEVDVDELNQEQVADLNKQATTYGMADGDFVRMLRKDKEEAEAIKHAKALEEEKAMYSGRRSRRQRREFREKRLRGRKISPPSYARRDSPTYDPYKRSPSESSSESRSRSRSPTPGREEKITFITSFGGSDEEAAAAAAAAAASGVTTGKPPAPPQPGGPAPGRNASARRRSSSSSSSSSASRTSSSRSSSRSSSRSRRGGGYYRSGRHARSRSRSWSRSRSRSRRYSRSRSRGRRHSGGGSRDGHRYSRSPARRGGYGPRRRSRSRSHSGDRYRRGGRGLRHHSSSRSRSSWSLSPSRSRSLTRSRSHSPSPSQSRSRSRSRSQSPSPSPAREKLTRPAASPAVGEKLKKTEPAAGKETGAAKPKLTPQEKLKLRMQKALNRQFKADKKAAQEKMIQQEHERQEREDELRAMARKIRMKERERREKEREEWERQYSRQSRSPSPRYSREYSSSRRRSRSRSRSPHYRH
Sequence of UniProt P40926 (P40926 whole entry): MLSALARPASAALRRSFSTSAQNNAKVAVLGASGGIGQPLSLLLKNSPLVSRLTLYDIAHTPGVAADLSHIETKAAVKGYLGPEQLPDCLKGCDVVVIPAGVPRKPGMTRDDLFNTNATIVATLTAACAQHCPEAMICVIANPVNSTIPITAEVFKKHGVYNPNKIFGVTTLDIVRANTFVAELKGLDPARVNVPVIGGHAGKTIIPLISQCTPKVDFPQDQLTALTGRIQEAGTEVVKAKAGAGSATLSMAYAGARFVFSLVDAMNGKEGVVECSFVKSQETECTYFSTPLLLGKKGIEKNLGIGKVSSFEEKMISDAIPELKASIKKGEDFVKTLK
Sequence of UniProt P49593 (P49593 whole entry): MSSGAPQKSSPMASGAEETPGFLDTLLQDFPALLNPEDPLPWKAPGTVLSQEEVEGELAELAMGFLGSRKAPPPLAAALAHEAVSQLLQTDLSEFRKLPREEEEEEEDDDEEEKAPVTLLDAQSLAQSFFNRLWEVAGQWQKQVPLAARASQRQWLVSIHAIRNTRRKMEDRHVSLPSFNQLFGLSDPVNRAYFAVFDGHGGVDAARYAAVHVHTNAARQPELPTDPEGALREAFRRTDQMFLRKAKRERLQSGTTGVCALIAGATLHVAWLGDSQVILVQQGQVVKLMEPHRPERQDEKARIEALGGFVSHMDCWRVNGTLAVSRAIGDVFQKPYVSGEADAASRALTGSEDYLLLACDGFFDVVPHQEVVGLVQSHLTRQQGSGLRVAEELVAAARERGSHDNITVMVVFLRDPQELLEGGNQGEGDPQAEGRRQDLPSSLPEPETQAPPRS
Sequence of UniProt P25325 (P25325 whole entry): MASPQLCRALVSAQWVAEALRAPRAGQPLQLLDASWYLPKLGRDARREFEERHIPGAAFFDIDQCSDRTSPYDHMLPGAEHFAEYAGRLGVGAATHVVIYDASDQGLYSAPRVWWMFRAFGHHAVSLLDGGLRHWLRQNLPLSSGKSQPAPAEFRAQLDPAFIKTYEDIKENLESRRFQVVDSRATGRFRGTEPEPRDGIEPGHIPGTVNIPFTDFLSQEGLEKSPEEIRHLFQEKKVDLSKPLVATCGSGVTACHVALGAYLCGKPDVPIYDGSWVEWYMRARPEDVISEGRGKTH

Row | Target | thermal stability z-score (potassium arsenate) | thermal stability z-score (lipoamide; [1]) | thermal stability z-score (lipoamide; arsenate co-treatment: none)
1 | ZNF207 (UniProt O43670) | 0.167 | 0.132 | -0.22
2 | MARCH5 (UniProt Q9NX47) | 0.411 | 0.842 | -0.0503
3 | ANKRD52 (UniProt Q8NB46) | -0.372 | -0.69 | -0.0975
4 | GNE (UniProt Q9Y223) | 0.317 | 0.652 | 0.274
5 | PPM1F (UniProt P49593) | -0.617 | -0.361 | -0.757
6 | RAB32 (UniProt Q13637) | 0.411 | -0.0545 | -0.0863
7 | TIMM17B (UniProt O60830) | 0.173 | 0.0946 | -0.362
8 | BLOC1S2 (UniProt Q6QNY1) | 1.61 | 2.75 | 1.1
9 | KIF15 (UniProt Q9NS87) | 0.921 | -0.328 | -0.386
10 | POP1 (UniProt Q99575) | -0.401 | -0.557 | -0.523
11 | VPS39 (UniProt Q96JC1) | 0.407 | -0.937 | -0.6
12 | SEC11C (UniProt Q9BY50) | 0.222 | -0.973 | -0.842
13 | MDH2 (UniProt P40926) | -0.963 | 0.922 | 0.615
14 | MPST (UniProt P25325) | -0.099 | 0.689 | 0.913
15 | CLASRP (UniProt Q8N2M8) | 0.14 | -0.693 | -0.133
16 | MTMR6 (UniProt Q9Y217) | -0.39 | 0.0538 | 0.0997
17 | VTI1A (UniProt Q96AJ9) | -0.0839 | 0.054 | 0.419
18 | ECI1 (UniProt P42126) | 0.59 | 0.859 | 0.555

Row | Target | thermal stability z-score (potassium arsenate) | thermal stability z-score (lipoamide; [1]) | thermal stability z-score (lipoamide; arsenate co-treatment: none)
19 | OSBPL10 (UniProt Q9BXB5) | -1.41 | -1.14 | -0.711
20 | PPP1CB (UniProt P62140) | 0.32 | 0.928 | -0.00317
21 | PDK2 (UniProt Q15119) | 0.0862 | 0.292 | 0.0166
22 | FIP1L1 (UniProt Q6UN15) | -1.73 | 0.903 | 0.265
23 | GDI2 (UniProt P50395) | -0.47 | 0.452 | 0.275
24 | CRNKL1 (UniProt Q9BZJ0) | -0.00401 | 0.288 | 0.156
25 | AGTRAP (UniProt Q6RW13) | 1.66 | 0.719 | 0.743
26 | RPL32 (UniProt P62910) | -0.93 | 0.158 | -0.028
27 | DUSP12 (UniProt Q9UNI6) | 1.05 | -0.0977 | 0.123
28 | PHF23 (UniProt Q9BUL5) | -3.81 | 0.843 | 0.376
29 | IRGQ (UniProt Q8WZA9) | -0.24 | -0.249 | -0.257
30 | IARS (UniProt P41252) | 0.763 | -0.197 | -0.0191
31 | LIN9 (UniProt Q5TKA1) | -0.121 | -0.0678 | -0.263
32 | PAK2 (UniProt Q13177) | -0.165 | -0.044 | 0.283
33 | TRMT61A (UniProt Q96FX7) | -0.0703 | 1.14 | -1.08
34 | RPS8 (UniProt P62241) | -0.848 | 0.378 | 0.0867
35 | MINK1 (UniProt Q8N4C8) | -0.0337 | -0.526 | 0.0558
